In patent US11739093B2, “Substituted pyrazolopyrazines, imidazopyrazines and [1,2,4]triazolopyrazines as allosteric SHP2 inhibitors” (Revolution Medicines, Inc., priority 2017, dated 2023) one finds IC50 data, which are given here for four compounds.

The target of this assay is SHP2 (Homo sapiens (Human), UniProt Q06124). The experiment in a line: SHP2 Allosteric Inhibition Assay. Format: biochemical. To be noted: 0.2 nM SHP2 with 0.5 μM Activating Peptide 1 or 2; surrogate substrate DiFMUP; prompt fluorescence, kinetic read. An excerpt: Without wishing to be bound by theory, SHP is allosterically activated through binding of bis-tyrosyl-phosphorylated peptides to its Src Homology 2 (SH2) domains. The latter activation step leads to the release of the auto-inhibitory interface of SHP2, which in turn renders the SHP2 protein tyrosine phosphatase (PTP) active and available for substrate recognition and reaction catalysis. The catalytic activity of SHP2 was monitored using the surrogate substrate DiFMUP in a prompt fluorescence assay format.
Chain of SHP2 (Q06124 whole entry): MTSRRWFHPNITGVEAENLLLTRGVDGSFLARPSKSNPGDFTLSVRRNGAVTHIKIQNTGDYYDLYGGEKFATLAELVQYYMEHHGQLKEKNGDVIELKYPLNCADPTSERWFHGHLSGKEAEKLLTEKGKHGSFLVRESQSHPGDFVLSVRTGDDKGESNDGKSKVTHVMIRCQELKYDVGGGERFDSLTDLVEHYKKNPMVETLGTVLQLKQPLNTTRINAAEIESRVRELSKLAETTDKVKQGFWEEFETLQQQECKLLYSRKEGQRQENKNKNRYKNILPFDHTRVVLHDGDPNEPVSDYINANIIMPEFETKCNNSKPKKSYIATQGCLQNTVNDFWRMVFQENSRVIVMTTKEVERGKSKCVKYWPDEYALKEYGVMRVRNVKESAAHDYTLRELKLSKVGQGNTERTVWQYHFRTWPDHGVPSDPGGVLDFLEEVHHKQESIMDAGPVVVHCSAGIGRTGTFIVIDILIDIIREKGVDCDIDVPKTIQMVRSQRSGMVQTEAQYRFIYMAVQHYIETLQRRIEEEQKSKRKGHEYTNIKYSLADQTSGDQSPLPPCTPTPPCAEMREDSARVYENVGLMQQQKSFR
The phosphatase reactions were performed at room temperature in 96-well black polystyrene plate, flat bottom, non-binding surface (Corning, Cat #3650) using a final reaction volume of 100 μL and the following assay buffer conditions: 50 mM HEPES, pH 7.2, 100 mM NaCl, 0.5 mM EDTA, 0.05% P-20, 1 mM DTT.
The inhibition of SHP2 by compounds of the disclosure (concentrations varying from 0.00005-10 μM) was monitored using an assay in which 0.2 nM of SHP2 was incubated with 0.5 μM of Activating Peptide 1 (sequence: H2N-LN(pY)IDLDLV(dPEG8)LST(pY)ASINFQK-amide) or Activating Peptide 2 (sequence: H2N-LN(pY)AQLWHA(dPEG8)LTI(pY)ATIRRF-amide). After 30-60- minutes incubation at 25° C., the surrogate substrate DiFMUP (Invitrogen, Cat #D6567) was added to the reaction and activity was determined by a kinetic read using a microplate reader (Envision, Perkin-Elmer or Spectramax M5, Molecular Devices). The excitation and emission wavelengths were 340 nm and 450 nm, respectively. Initial rates were determined from a linear fit of the data, and the inhibitor dose response curves were analyzed using normalized IC50 regression curve fitting with control based normalization.
Turning to `C[C@@H]1OCC2(CCN(c3ncc(Sc4ccnc(N)c4Cl)c4ncncc34)CC2)[C@@H]1N` [Compound 16, (3S,4S)-8-{8-[(2-amino-3-chloropyridin-4-yl)sulfanyl]pyrido[4,3-d]pyrimidin-5-yl}-3-methyl-2-oxa-8-azaspiro[4.5]decan-4-amine], inhibition was half-maximal at 83 nM (IC50).
The compound `Cc1nc(N2CCC3(CC2)CO[C@@H](C)[C@H]3N)c2nccn2c1Sc1ccnc(N)c1Cl` [Compound 6, (3S,4S)-8-{5-[(2-amino-3-chloropyridin-4-yl)sulfanyl]-6-methylimidazo[1,2-a]pyrazin-8-yl}-3-methyl-2-oxa-8-azaspiro[4.5]decan-4-amine] displayed an IC50 of 1100 nM.
Next, `Cc1nc(N2CCC(C)(N)CC2)c2cncn2c1-c1cccc(Cl)c1Cl` [Compound 2, 1-(5-(2,3-dichlorophenyl)-6-methylimidazo[1,5-a]pyrazin-8-yl)-4-methylpiperidin-4-amine]: 190 nM.
On to `CC1(N)CCN(c2ncc(Sc3ccnc(N)c3Cl)c3nsnc23)CC1` [Compound 15, 4-((4-(4-amino-4-methylpiperidin-1-yl)-[1,2,5]thiadiazolo[3,4-c]pyridin-7-yl)thio)-3-chloropyridin-2-amine], for which it took 340 nM to reach half-maximal inhibition (IC50).

What is called IC50 is the concentration at which inhibition is half-maximal. A low value points to higher potency.
